Values quoted from earlier work in patent US7317127B2, “Process for the optical resolution and recycling of tomoxetine” (Teva Pharmaceutical Fine Chemicals S.r.l, priority 2004, dated 2008).

Details: as disclosed in U.S. Pat. No. 4,018,895, EP 0 052 492, EP 0 721 777

## CNCC[C@@H](Oc1ccccc1C)c1ccccc1 [Atomoxetine, (R)(−)-N-methyl-3-(2-methylphenoxy)-3-phenylpropylamine]
Versus (S)-(+)-tomoxetine
  effectiveness relative to the (+)-enantiomer: about nine times more effective than the (+)-enantiomer
Versus racemic tomoxetine
  effectiveness relative to the racemic mixture: about twice as effective as the racemic mixture
